Results as given in patent US11015179B2, “Peptide having anti-viral effect and composition containing same” (priority 2015, dated 2021).

Experiments:
NF-κB = NF-κB dual-luciferase assay in MT-4 cells; type: cell-based, human; conditions: 24 hours
Text: NF-κB triggers HIV transcription by interacting with an NF-κB-binding site in HIV-LTR, and increases the activation of TAT-mediated LTR […]. In addition, Tat can directly activate NF-κB. Recently, there have been studies showing that eHSP90 can regulate various intracellular signaling pathways, including the NF-κB pathway.

HIV-1 [1] = conditions: MT-4 cells
Method: The MT-4 cells (4×10^5 cells) were infected with HIV-1 (4×10^5 50% cell culture infective dose (CCID50)) for one hour. […] After two days of incubation, images of the MT-4 cells expressing eGFP were obtained using a fluorescence microscope before harvesting the cells. To remove cell debris, the collected supernatant was subjected to centrifugation at 13,000 rpm for 3 minutes, and to measure an extracellular viral amount, p24 ELISA or RNA extraction was performed for a reverse transcription-quantitative polymerase chain reaction (RT-qPCR). Meanwhile, the cell pellets were washed with D-PBS twice, and used for a cell viability assay. […] HIV-1 replication was analyzed by p24 ELISA, and eGFP was monitored using a fluorescent microscope.
To measure HIV-1 virus titers, HIV-1 p24 antigen capture ELISA (p24 ELISA, ABL) and RT-qPCT assay were performed according to the manufacturer's instructions. HIV-1 RNA genomes were purified from the cell culture supernatants and pellets using a QIAamp Ultrasens Virus kit (Qiagen, Hilden, Germany) according to the manufacturer's instructions. The HIV-1 RNA levels were quantified by RT-qPCR using a primer pair specific to gag of HIV-1. Glyceraldehyde phosphate dehydrogenase (GAPDH) was used as a reference gene for normalization. […]

HIV-1 [2] = conditions: ACH-2 cells, RT-qPCR, stepwise increasing concentrations
Method: That is, ACH-2 cells, that is, cells latently-infected with HIV-1, were stimulated with PMA (50 nM) to induce reactivation of HIV-1 for 1 hour. […] A production level of viral particles in the supernatant was determined by p24 ELISA.
The levels of viral genomic RNA of the produced viral particles were determined by RT-qPCR.

[3] = test system: HIV-1 Tat transactivation; assay: HIV-LTR-luciferase assay in 1G5 cells transfected with Tat plasmids; type: cell-based; conditions: four days
Method: An HIV-1 transactivation protein (Tat) is a regulatory protein dramatically enhancing HIV-1 transcription through the interaction with the tat-transcriptional active region (TAR). […] In the present invention, as a Jurkat-derived cell line, 1G5 containing a stably-inserted HIV-LTR-luciferase construct was used.
The 1G5 cells were transfected with Tat plasmids. […] Four days after the infection, the transactivation of HIV-LTR was analyzed through a luciferase assay.

[4] = test system: HIV-1-infected MT-4 cells; assay: Cell protective effect from HIV-1-induced cell death in MT-4 cells; type: cell-based, human; conditions: 5 days
Method: MT-4, 1G5 or ACH-2 cells were seeded in a 96-well microplate at a density of 1×10^4 cells/well, and incubated with increasing concentrations of PEP1 for 5 days. Cell viability was determined by colorimetry using a CellTiter96 Aqueous One Solution assay kit (Promega, Wis.) according to the manufacturer's instructions. To assess the cell protective effect of PEP1 from HIV-1-induced cell death, MT-4 cells (1×10^4) were infected with the HIV-1 virus (4×10^5 CCID50) for 5 days with or without PEP1, and subjected to a cell viability assay.
It has been known that apoptosis of HIV-infected cells occurs by an intracellular cell death mechanism.

HCV = assay: Quantitative PCR of HCV NS2 transcript in JFH-1 cells; type: cell-based, Hepatitis C virus (HCV2a JFH-1); conditions: 48 hours, vs vehicle, PEP1 until 10 μM, NAC 20 mM, PDTC 100 μM, vitamin E 10 μM
Method: A cell line used in the example relating to the HCV antiviral effect of PEP1 according to an aspect of the present invention, such as, human hepatocellular carcinoma (Huh7.5) was purchased from the American Type Culture Collection (ATCC; Manassas, Va., USA), and a JFH-1 cell line was constructed using HCV2a JFH-1 clones provided from Dr. Wakita (Tokyo Metropolitan Institute for Neuroscience, Tokyo, Japan) in the Huh7.5 cell line. All of the cell lines were cultured in a Dulbecco's modified Eagle's medium (DMEM) containing 10% FBS and 1% antibiotics.
A HCV RNA level was detected though quantitative PCR using primers for a NS2 gene. To measure the level of HCV RNA in the supernatant of cell culture, RNA was extracted from 100 μl of the cell culture using a QIAamp Viral RNA Mini kit (Qiagen). The extracted RNA was used in cDNA synthesis using a transcript first strand cDNA synthesis supermix kit (Roche Applied Science). PCR was carried out using a 1×SYBR Green mix (Qiagen). For real-time PCR, an NS2 forward primer 5′-[…]-3′ (SEQ ID NO: 3) and a reverse primer 5′-[…]-3′ (SEQ ID NO: 4) were purchased from Bioneer Co. For quantitative PCR, a 7900HT Fast real-time PCR system (Applied Biosystems, Foster City, Calif., USA) was used.
According to the methods described in the experiments and the analysis methods, to investigate whether PEP1 inhibits the replication of one HCV RNA such as NS2, the transcript of NS2 was measured.

JFH-1 cells = assay: Intracellular ROS production (DCF-DA) in JFH-1 cells; type: cell-based, human; conditions: for ROS production: 2 hours, PEP1 0.001-10 μM, NAC, PDTC 100 μM, vitamin E 10 μM, vs vehicle
Method: One day after 5×10^4 (cells/well) cells of the JFH-1 cell line were seeded into a 24-well plate, intracellular ROS production was measured according to various experimental materials. Measurement of intracellular activity was carried out by staining the cells with dichlorodihydrofluoresein diacetate (DCF-DA; Invitrogen), and fluorescence measurement of ROS production was carried out at […] using Infinte M2000 Tecan (Tecan Trading AG, Switzerland). All fluorescent units were expressed as arbitrary units, and as a positive control group, hydrogen peroxide (H2O2, 2 mM) was used. ROS measurement for the Huh7.5 cells was also carried out by the same procedure as described above.
As a control group, a human HCC cell line, and Huh7.5 and JFH-1 cell lines were treated with known representative antioxidants such as NAC (2 Mm), PDTC (100 μM), and vitamin E (10 μM) and then compared.
The inventors inhibited the interaction with HSP90 by two methods: a use of antibodies against […] and antibodies against HSP90 or a use of an inhibitor occupying a catalytic position (ATP-binding pocket in the N-terminal of HSP90).

p38, JNK and ERK = assay: Immunoblotting of MAPK signaling factors in JFH-1 cells; type: cell-based, human; conditions: 2 hours, vitamin E 10 μM
Method: Proteins were acquired from cells using a lysis solution (Cell Signaling Technology, Danvers, Mass., USA) containing a proteinase inhibitors cocktail (Roche, Basel, Switzerland) and a phosphatase inhibitor (Roche). To remove debris, which remained after cell lysis, the cells were centrifuged for 10 minutes at 4° C. 50 μg of the proteins were analyzed through 12% sodium dodecyl sulfate-polyacrylamide gel electrophoresis (SDS-PAGE), and then transferred to a polyvinylidene difluoride membrane (PVDF; Millipore, Bedford, Mass., USA). The transferred membrane was developed using an ImageQuant™ LAS 4000 mini biomolecular imager (GE Healthcare Bio-Sciences AB, Sweden), after antibodies against HSP90, p38, p-p38 (Thr180/Tyr182), JNK, p-JNK (Thr183/Tyr185), ERK, p-ERK (Thr202/Tyr204), and zinc-copper containing enzyme SOD (CuZn-SOD) and manganese-SOD (Mn-SOD) as superoxide dismutase oxidases (SODs), and GAPDH (all of them were purchased from Cell Signaling Technology and Santa Cruz Biotechnology) were attached to the membrane and then visualized by a SuperSignal West Pico chemiluminescence substrate (Pierce, Rockford, USA). β-actin was used for normalization using a Multi Gauge V 3.0 (Fuji Film, Japan), and quantitative analysis was carried out by densitometry. […]

[5] = test system: HSP90 (extracellular HSP90, eHSP90); assay: Extracellular HSP90 detection by ELISA in JFH-1 culture supernatant; type: cell-based, human; conditions: JFH-1 cells, PDTC 100 μM, 2 hours, vs control
Method: The Huh7.5 and JFH-1 cell lines were treated with an oxidant (H2O2, 2 mM) and an antioxidant, PDTC (100 μM), for two hours. HSP90 (extracellular HSP90, eHSP90) in the supernatant of a culture was detected by ELISA (R&D Systems, Minneapolis, Minn., USA) according to the manufacturer's instructions.

HIV-1 [6] = conditions: characteristics of control anti-HIV drugs stated as well known; cited from earlier work

## Cc1cn([C@H]2C[C@H](N=[N+]=[N-])[C@@H](CO)O2)c(=O)[nH]c1=O [AZT, 3-azido-3-deoxythymidine]
NF-κB
  NF-κB activity in HIV-1-infected MT-4 cells: medium level of inhibitory effect
NF-κB; MT-4 cells
  Basal NF-κB activity: no significant effect
HIV-1 [1]; fluorescence / immunoblotting
  Inhibition of eGFP expression after anti-HSP90 antibodies: an effect of AZT was not obtained
HIV-1 [1]; p24 ELISA
  Inhibition of HIV-1 production after anti-HSP90 neutralization antibodies: no influence
HIV-1 [2]
  Viral genomic RNA of produced viral particles after PMA: did not change the PMA effect
[3]
  HIV-LTR luciferase activity activated by ectopic expression of Tat: did not inhibit
[4]
  Cell protective effect: considerable cell protective effects in a dose-dependent manner

## vitamin E
HCV
  NS2 transcription (HCV RNA replication): do not inhibit the NS2 transcription at all
JFH-1 cells
  ROS production: induced a decrease in ROS production
p38, JNK and ERK
  ERK activity: increased

## C=CCNC1=C2C[C@@H](C)C[C@H](OC)[C@H](O)[C@@H](C)/C=C(\C)[C@H](OC(N)=O)[C@@H](OC)/C=C\C=C(/C)C(=O)NC(=CC1=O)C2=O [17AAG, 17-N-Allylamino-17-demethoxy geldanamycin]
JFH-1 cells; 17AAG 1 μM, KNK 10 μM
  Change in ROS caused by HSP inhibitor: the ROS inhibitory effect was exhibited

## S=C(S)N1CCCC1 [PDTC, pyrolidine dithiocarbamate]
HCV
  NS2 transcription (HCV RNA replication): do not inhibit the NS2 transcription at all
JFH-1 cells
  ROS production: induced a decrease in ROS production
JFH-1 cells; PDTC
  ROS production in the presence of KNK and 17AAG: inhibits ROS production in the presence of both of KNK and 17AAG
  ROS production with HSP70/HSP90 blocking antibodies: inhibits ROS production regardless of blocking of HSP70 and HSP90
[5]
  eHSP90 level: produced at a lower level than the control group

## CC(=O)N[C@@H](CS)C(=O)O [NAC, N-acetylcysteine]
HCV
  NS2 transcription (HCV RNA replication): do not inhibit the NS2 transcription at all
JFH-1 cells
  ROS production: induced a decrease in ROS production

## CC(C)c1nc(CN(C)C(=O)N[C@H](C(=O)N[C@@H](Cc2ccccc2)C[C@H](O)[C@H](Cc2ccccc2)NC(=O)OCc2cncs2)C(C)C)cs1 [Ritonavir]
HIV-1 [6]
  Time of treatment at which the control drug inhibits HIV proliferation: up to 15 hours
